Test results from patent EP0397025B1, “[2-(2-pyridyl)ethyl]-methylamine salts” (PRODOTTI FORMENTI S.r.l., priority 1989, dated 1990).
Structures can show the parent of a compound that is named as a salt. Where two headings read alike, the source gives them in different places.

Experiments:
[1] = Bioavailability test on rats; settings: rat, in vivo
Method: The AUCs, in the time 0-3 hours, for betahistine fumarate and betahistine dihydrochloride evidence no significant differences (8.2 vs 7.6 h.µg/ml, respectively).

[2] = pH of the administered treatment; type: physicochemical; settings: treatment as administered in the gastric erosion test
gastric mucosa = experiment: Effect on gastric erosions (Adami index); type: in vivo; settings: for N^o GASTRIC EROSIONS / SEVERITY: Adami index
Method: A comparison test between betahistine hydrochloride and betahistine fumarate was carried out, evaluating the toxicity (LD₅₀) and the effect on gastric erosions, at equimolar doses.
Admnistration volume = 15 ml/kg Evaluation of the stomach conditions = 1h after administration according to Adami index.

[3] = Partition coefficient octanol/buffer; type: physicochemical; settings: for logD: octanol/buffer, pH 9, octanol/buffer pH = 9.0
Solubility = type: physicochemical
[4] = 20 mmoles/kg, administration volume 15 ml/kg, 1h after administration, dihydrochloride
[5] = 20 mmoles/kg, administration volume 15 ml/kg, 1h after administration

## CNCCc1ccccn1 [BETAHISTINE DIHYDROCHLORIDE, betahistine dihydrochloride, reference compound]
[1]
  AUC: 7600 ng·h/mL
  bioavailability: substantially the same bioavailability
[2]; dihydrochloride
  pH: BETAHISTINE DIHYDROCHLORIDE pH=1.6
Gastric mucosa; [4]
  N^o GASTRIC EROSIONS: 7.92±1.26
  SEVERITY: 3.85±0.35
  % ANIMALS WITH EROSIONS: serious erosions: 92.32% serious erosions

## CNCCc1ccccn1 [BETAHISTINE FUMARATE, Betahistine Fumarate]
[1]
  plasmatic curve peak after the administration: 15 min
[1]; rats, 0-3 hours, read-out: AUCs, in the time 0-3 hours
  AUC at 3 h: 8200 ng·h/mL
[3]; read-out: Partition coefficient P (converted)
  logD: -0.904
[3]; read-out: logP
  logD: 0.904
[2]
  pH: BETAHISTINE FUMARATE pH = 4.19
Gastric mucosa; [5]
  % ANIMALS WITH EROSIONS: diffused bleeding: 20%
  % ANIMALS WITH EROSIONS: serious erosions: 10%
  N^o GASTRIC EROSIONS: 0.3±0.3
  SEVERITY: 0.6±0.31
Gastric mucosa; equimolar doses, compared with the hydrochloride
  effect on gastric erosions: markedly improved
Solubility; acetone
  Solubility in acetone: poorly soluble
Solubility; acid aqueous solutions
  Solubility in acid aqueous solutions: soluble
Solubility; chloroform
  Solubility in chloroform: almost unsoluble
Solubility; ethanol
  Solubility in ethanol: soluble
Solubility; methanol
  Solubility in methanol: soluble
Solubility; water
  Solubility in water: soluble

## CNCCc1ccccn1 [BETAHISTINE, [2-(2-Pyridyl)ethyl]-methylamine]
[3]; octanol/buffer pH = 9.0
  Partition coefficient P: 0.147
